Laboratory results reported in PMC12511557, “WEE1 inhibitors synergise with mRNA translation defects via activation of the kinase GCN2” (Nature Communications, 2025).

Target: T1, GCN2 (Homo sapiens, UniProt Q9P2K8)
T1 construct: gene EIF2AK4; recombinant human GCN2, N-terminal twin StrepII tag, expressed in Sf9 cells
Assay: ADP-Glo kinase assay with purified GCN2 (biphasic: activation EC50 […], inhibition IC50 […]); supported by thermal unfolding (-2.[…] °C shift) and in vitro autophosphorylation
Assay type: biochemical

T1 sequence (Q9P2K8 whole entry): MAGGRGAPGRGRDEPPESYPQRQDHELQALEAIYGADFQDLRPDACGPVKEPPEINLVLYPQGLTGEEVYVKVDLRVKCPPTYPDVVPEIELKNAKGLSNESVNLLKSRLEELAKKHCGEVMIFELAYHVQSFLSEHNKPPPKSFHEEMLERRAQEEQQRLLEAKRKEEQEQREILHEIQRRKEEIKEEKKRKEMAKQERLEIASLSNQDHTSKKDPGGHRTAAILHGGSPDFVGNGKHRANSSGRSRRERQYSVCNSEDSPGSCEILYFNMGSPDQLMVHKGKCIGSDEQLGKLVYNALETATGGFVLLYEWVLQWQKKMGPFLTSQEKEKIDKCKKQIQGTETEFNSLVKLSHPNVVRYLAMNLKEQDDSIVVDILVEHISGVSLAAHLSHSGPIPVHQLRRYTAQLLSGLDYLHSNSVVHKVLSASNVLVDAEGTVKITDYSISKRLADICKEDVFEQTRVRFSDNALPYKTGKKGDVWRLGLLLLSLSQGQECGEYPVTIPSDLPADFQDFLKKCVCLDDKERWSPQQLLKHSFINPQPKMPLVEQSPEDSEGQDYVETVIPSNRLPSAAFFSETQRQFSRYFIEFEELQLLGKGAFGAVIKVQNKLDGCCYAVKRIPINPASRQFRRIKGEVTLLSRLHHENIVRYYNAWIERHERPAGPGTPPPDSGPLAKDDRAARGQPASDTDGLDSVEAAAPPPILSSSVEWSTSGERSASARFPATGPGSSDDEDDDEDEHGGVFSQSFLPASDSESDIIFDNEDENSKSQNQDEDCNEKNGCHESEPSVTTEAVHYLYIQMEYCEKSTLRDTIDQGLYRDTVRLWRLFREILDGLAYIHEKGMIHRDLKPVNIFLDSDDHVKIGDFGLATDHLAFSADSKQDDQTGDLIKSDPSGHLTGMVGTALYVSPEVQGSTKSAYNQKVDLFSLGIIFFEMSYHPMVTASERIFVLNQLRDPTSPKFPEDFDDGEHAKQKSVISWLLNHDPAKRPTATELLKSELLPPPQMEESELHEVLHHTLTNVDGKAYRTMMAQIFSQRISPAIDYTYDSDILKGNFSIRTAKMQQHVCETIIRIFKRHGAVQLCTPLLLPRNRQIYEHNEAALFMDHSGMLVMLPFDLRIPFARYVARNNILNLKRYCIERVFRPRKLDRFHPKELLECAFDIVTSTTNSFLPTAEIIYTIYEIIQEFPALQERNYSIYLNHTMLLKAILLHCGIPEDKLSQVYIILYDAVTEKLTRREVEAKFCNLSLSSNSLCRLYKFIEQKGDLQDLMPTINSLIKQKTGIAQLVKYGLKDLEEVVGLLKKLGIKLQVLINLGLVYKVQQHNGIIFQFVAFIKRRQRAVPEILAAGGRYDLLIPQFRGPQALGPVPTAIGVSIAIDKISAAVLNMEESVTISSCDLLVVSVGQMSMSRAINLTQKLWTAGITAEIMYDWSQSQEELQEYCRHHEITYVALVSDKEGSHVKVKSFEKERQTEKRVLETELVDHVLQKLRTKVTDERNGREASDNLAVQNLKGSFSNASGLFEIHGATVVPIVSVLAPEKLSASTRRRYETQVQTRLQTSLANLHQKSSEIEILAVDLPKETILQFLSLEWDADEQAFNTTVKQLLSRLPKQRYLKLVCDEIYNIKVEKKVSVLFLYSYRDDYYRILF

EC50: 16 nM
Structure (SMILES): C=CCn1c(=O)c2cnc(Nc3ccc(N4CCN(C)CC4)cc3)nc2n1-c1cccc(C(C)(C)O)n1 [AZD1775]
